US7297523B2, “Human elongase genes and uses thereof” (Xenon Pharmaceuticals Inc., priority 2000, dated 2007)

Legend:
D5D = D5D activity in liver microsomes from STZ-induced diabetic rats; assay type: in vivo, rat; conditions: compared to control
Description: (§1) The desaturase and elongase enzyme activities in liver microsomes from streptozotocin (STZ)-induced diabetic rats was assayed at 2 and 7 weeks post-induction. Table 1 indicates the decrease in activities compared to a control, observed during the course of the experiment. An equivalent decrease in elongation activity in STZ-induced diabetic rats has been previously reported (Suneja et al., 1990, Biochim. Biophys. Acta, 1042: 81-85).

Leukocytes [1] = assay: Conversion of 18:3n-6 into 20:3n-6 in leukocytes from STZ-induced diabetic rats; assay type: in vivo, rat
Elongase = Elongase activity in liver microsomes from STZ-induced diabetic rats; assay type: in vivo, rat; conditions: compared to control
Description: as §1

Leukocytes [2] = assay: Conversion of 18:2n-6 into 20:2n-6 in leukocytes from STZ-induced diabetic rats; assay type: in vivo, rat; conditions: for Conversion of 18:2n-6 into 20:2n-6: leukocytes incubated for 24 h, mean ± S.D. of 6 rats
D6D = D6D activity in liver microsomes from STZ-induced diabetic rats; assay type: in vivo, rat; conditions: compared to control
Description: as §1

20:5n-3 = assay: Elongation of [1-14C]20:5n-3 in yeast expressing human elongases (RP-HPLC); conditions: untagged elongase; 25 μM substrate; product 22:5n-3
Description: (§2) For the expression of ELG1, ELG2, ELG3, ELG4, ELG5, ELG6 or ELG7 the yeast were transformed with pTh1009.1, pTh1014.1, pTh1015.1, pTh1021.1, pTh1018.1, pTh1041.1 or pTh1044.1, respectively. For the expression of ELG1/V5-His, ELG2/V5-His, ELG3/V5-His, ELG4/V5-His, ELG5/V5-His, ELG6/V5 -His or ELG7/V5-His the yeast were transformed with pTh1009.2, pTh1014.2, pTh1017.1, pTh1021.2, pTh1019.1, pTh1042.1 or pTh1045.1, respectively. Recombinant yeast cells were selected on SC-U medium.
(§3) Transformed yeast (approximately 3.2×10^6 cells/ml; O.D.600 0.4) were incubated in a 125 ml Erlenmeyer containing 10 ml of SC-U medium with 1% raffinose, 1% tergitol and 25 μM of the lithium salts of either [1-^14C]18:3n-3 (1 μCi), [1-^14C]18:3n-6 (1 μCi), [1-^14C]20:4n-6 (2 μCi), or [1-^14C]20:5n-3 (2 μCi). After 4 h incubation in an orbital incubator at 270 rpm and 30° C., cells reached the log phase and the transgene, expression was induced with galactose 30° C., cells reached the log phase and the transgene expression was induced with galactose (2% final concentration). The yeast were incubated for an additional 19 h and then harvested by centrifugation at 5000×g for 10 minutes at 4° C.
(§4) Cells were washed with Tris-HCl buffer (100 mM, pH 8.0) containing 0.1% BSA and total lipids were extracted as described below. The radioactivity from aliquots of the incubation medium, supernatant and cells was determined by liquid scintillation counting using a LS6500-Scintillation System (Beckman).
Alternatively, cells were resuspended in 1.5 ml of water and saponified with 2 ml of 10% KOH in ethanol. The total lipid extracts or the free fatty acids from the saponified samples were methylated using boron trifluoride in methanol at 90° C. for 30 min. The resultant methyl esters (FAME) were analyzed as described below. […]
18:3n-3 = assay: Elongation of [1-14C]18:3n-3 in yeast expressing human elongases (RP-HPLC); conditions: untagged elongase; 25 μM substrate; product 20:3n-3
Description: as §2, §3, §4
(§5) Alternatively, cells were resuspended in 1.5 ml of water and saponified with 2 ml of 10% KOH in ethanol. The total lipid extracts or the free fatty acids from the saponified samples were methylated using boron trifluoride in methanol at 90° C. for 30 min. The resultant methyl esters (FAME) were analyzed as described below.
(§6) Analyses of radiolabelled FAME were carried out on a Hewlett Packard 1090, series II chromatograph equipped with a diode array detector set at 205 nm, a radioisotope detector (model 171, Beckman, CA) with a solid scintillation cartridge (97% efficiency for ^14C-detection) and a reverse phase ODS (C-18) Beckman column (250 mm×4.6 mm i.d.; 5 μm particle size) attached to a pre-column with a μBondapak C-18 (Beckman) insert. FAME were separated isocratically with acetonitrile/water (95.5 v/v) at a flow rate of 1 ml/min and were identified by comparison with authentic standards. Alternatively, the eluted FAME were collected and the solvent evaporated. FAME were re-dissolved in hexane for further analysis by gas chromatography.
18:3n-6 = assay: Elongation of [1-14C]18:3n-6 in yeast expressing human elongases (RP-HPLC); conditions: for Percent Elongation of 18:3n-6 to 20:3: product 20:3n-6; for Percent Elongation of 18:3n-6 to 22:3: product 22:3n-6
Description: as §2, §3, §4, §5, §6
20:4n-6 = assay: Elongation of [1-14C]20:4n-6 in yeast expressing human elongases (RP-HPLC); conditions: untagged elongase, 25 μM substrate
Description: as §2, §3, §4, §5, §6

[3] = untagged elongase, 25 μM substrate

Molecule: CN(N=O)C(=O)N[C@H]1C(O)O[C@H](CO)[C@@H](O)[C@@H]1O (stereo partly drawn) [STZ, 2-desoxy-2-methylnitrosoamino carbonyl amino-D-glucopyranose]
- % Decrease of D5D activity (20:3n-6 → 20:4n-6) (D5D; 2 weeks post-induction): 33%
- % Decrease of D5D activity (20:3n-6 → 20:4n-6) (D5D; 7 weeks post-induction): 41%
- Conversion of 18:3n-6 into 20:3n-6 (Leukocytes [1]; 2 weeks post-induction, incubation time 0 h): 0 pmol of 20:3n-6 produced/mg cellular protein
- Conversion of 18:3n-6 into 20:3n-6 (Leukocytes [1]; 2 weeks post-induction, incubation time 0.16 h, mean ± S.D. of 6 rats): 50 ± 8 pmol of 20:3n-6 produced/mg cellular protein
- Conversion of 18:3n-6 into 20:3n-6 (Leukocytes [1]; 2 weeks post-induction, incubation time 0.5 h, mean ± S.D. of 6 rats): 115 ± 26 pmol of 20:3n-6 produced/mg cellular protein
- Conversion of 18:3n-6 into 20:3n-6 (Leukocytes [1]; 2 weeks post-induction, incubation time 1 h, mean ± S.D. of 6 rats): 288 ± 23 pmol of 20:3n-6 produced/mg cellular protein
- Conversion of 18:3n-6 into 20:3n-6 (Leukocytes [1]; 7 weeks post-induction, incubation time 0 h): 0 pmol of 20:3n-6 produced/mg cellular protein
- Conversion of 18:3n-6 into 20:3n-6 (Leukocytes [1]; 7 weeks post-induction, incubation time 0.16 h, mean ± S.D. of 6 rats): 37 ± 9 pmol of 20:3n-6 produced/mg cellular protein
- Conversion of 18:3n-6 into 20:3n-6 (Leukocytes [1]; 7 weeks post-induction, incubation time 0.5 h, mean ± S.D. of 6 rats): 112 ± 10 pmol of 20:3n-6 produced/mg cellular protein
- Conversion of 18:3n-6 into 20:3n-6 (Leukocytes [1]; 7 weeks post-induction, incubation time 1 h, mean ± S.D. of 6 rats): 190 ± 92 pmol of 20:3n-6 produced/mg cellular protein
- Conversion of 18:3n-6 into 20:3n-6 (Leukocytes [1]; 7 weeks post-induction, incubation time 24 h, mean ± S.D. of 6 rats): 1008 ± 98 pmol of 20:3n-6 produced/mg cellular protein
- activity of the elongation system (18:3n-6 into 20:3n-6) (Leukocytes [1]; STZ group versus control, regardless of the time after the last I.P. STZ injection): significant increase
- % Decrease of Elongase activity (18:3n-6 → 20:3n-6) (Elongase; 2 weeks post-induction): 46%
- % Decrease of Elongase activity (18:3n-6 → 20:3n-6) (Elongase; 7 weeks post-induction): 43%
- Conversion of 18:2n-6 into 20:2n-6 (Leukocytes [2]; 2 weeks post-induction): 322 ± 119 pmol of 20:2n-6 produced/mg cellular protein
- Conversion of 18:2n-6 into 20:2n-6 (Leukocytes [2]; 7 weeks post-induction): 147 ± 22 pmol of 20:2n-6 produced/mg cellular protein
- changes in the elongation of 18:2n-6 to 20:2n-6 (Leukocytes [2]; leukocytes from animals sacrificed 7 weeks after the STZ treatment): no significant changes
- reduction in the elongation of 18:2n-6 to 20:2n-6 (Leukocytes [2]; leukocytes obtained 2 weeks after the STZ injection): approximately 50%
- % Decrease of D6D activity (18:2n-6 → 18:3n-6) (D6D; 2 weeks post-induction): 28%
- % Decrease of D6D activity (18:2n-6 → 18:3n-6) (D6D; 7 weeks post-induction): 33%

B1: ELG2: human PUFA elongase expressed in yeast from plasmid pTh1014.1 (protein, UniProt Q9NYP7 1-299, looked up)
Very long chain fatty acid …: MEHFDASLSTYFKALLGPRDTRVKGWFLLDNYIPTFICSVIYLLIVWLGPKYMRNKQPFSCRGILVVYNLGLTLLSLYMFCELVTGVWEGKYNFFCQGTRTAGESDMKIIRVLWWYYFSKLIEFMDTFFFILRKNNHQITVLHVYHHASMLNIWWFVMNWVPCGHSYFGATLNSFIHVLMYSYYGLSSVPSMRPYLWWKKYITQGQLLQFVLTIIQTSCGVIWPCTFPLGWLYFQIGYMISLIALFTNFYIQTYNKKGASRRKDHLKDHQNGSMAAVNGHTNSFSPLENNVKPRKLRKD
- Percent Elongation of 20:5n-3 to 22:5 (20:5n-3): 59%
- Percent Elongation of 18:3n-3 to 20:3 (18:3n-3): 16%
- Percent Elongation of 18:3n-6 to 20:3 (18:3n-6; V5-His tagged elongase): 73%
- Percent Elongation of 18:3n-6 to 22:3 (18:3n-6; V5-His tagged elongase): 11%
- Percent Elongation of 18:3n-6 to 20:3 (18:3n-6; [3]): 62%
- Percent Elongation of 18:3n-6 to 22:3 (18:3n-6; [3]): 3%
- Percent Elongation of 20:4n-6 to 22:4 (20:4n-6; product 22:4n-6): 39%
- Percent Elongation of 20:4n-6 to 24:4 (20:4n-6; product 24:4n-6): 1%
